In ChEMBL document CHEMBL5724914, “Linking interpersonal differences in gut microbiota composition and drug biotransformation activity” (2024):

Tests used:
[1] = (§1) The drug is tested on Z-026 corresponding to metagenome with ENA study accession number: PRJEB37062 and ENA sample accession number: ERS12561825 for biotransformation under anaerobic condition. The drug concentrations were measured over 9 timepoints collected between 0 and 24 hours of incubation by liquid-chromatography-coupled mass spectrometry (LC–MS); settings: 2 µM
[2] = (§2) The drug is tested on Z-017 corresponding to mouse gut metagenome with ENA study accession number: PRJEB37062 and ENA sample accession number: ERS12561816 for biotransformation under anaerobic condition. The drug concentrations were measured over 9 timepoints collected between 0 and 24 hours of incubation by liquid-chromatography-coupled mass spectrometry (LC–MS); settings: 2 µM
[3] = as §1, with “Z-004” for “Z-026”, “ERS12561804” for “ERS12561825”; settings: 2 µM
[4] = as §2, with “WLS-310” for “Z-017”, “human” for “mouse”, “ERS12561785” for “ERS12561816”; settings: 2 µM
[5] = as §2, with “WLS-240” for “Z-017”, “human” for “mouse”, “ERS12561773” for “ERS12561816”; settings: 2 µM
[6] = as §2, with “WLS-220” for “Z-017”, “human” for “mouse”, “ERS12561769” for “ERS12561816”; settings: 2 µM
[7] = as §2, with “WLS-073” for “Z-017”, “human” for “mouse”, “ERS12561749” for “ERS12561816”; settings: 2 µM
[8] = as §2, with “WLS-069” for “Z-017”, “human” for “mouse”, “ERS12561748” for “ERS12561816”; settings: 2 µM
[9] = as §2, with “WLS-052” for “Z-017”, “human” for “mouse”, “ERS12561747” for “ERS12561816”; settings: 2 µM
[10] = as §2, with “WLS-039” for “Z-017”, “human” for “mouse”, “ERS12561746” for “ERS12561816”; settings: 2 µM
[11] = as §2, with “WLS-010” for “Z-017”, “human” for “mouse”, “ERS12561743” for “ERS12561816”; settings: 2 µM
[12] = human gut metagenome, 24 h, 2 µM
[13] = human gut metagenome, 24 h, 2 µM; remark: listed apart in the source
[14] = human gut metagenome, 24 h, 2 µM; remark: listed apart in the source
[15] = human gut metagenome, 24 h, 2 µM; remark: listed apart in the source
[16] = human gut metagenome, 24 h, 2 µM; remark: listed apart in the source
[17] = human gut metagenome, 24 h, 2 µM; remark: listed apart in the source
[18] = human gut metagenome, 24 h, 2 µM; remark: listed apart in the source
[19] = human gut metagenome, 24 h, 2 µM; remark: listed apart in the source
[20] = human gut metagenome, 24 h, 2 µM; remark: listed apart in the source
Further: call rule not given here.

SMILES | Bacterial Biotransformation [1] | Bacterial Biotransformation [2] | Bacterial Biotransformation [3] | Bacterial Biotransformation [4] | Bacterial Biotransformation [5] | Bacterial Biotransformation [6] | Bacterial Biotransformation [7] | Bacterial Biotransformation [8] | Bacterial Biotransformation [9] | Bacterial Biotransformation [10] | Bacterial Biotransformation [11] | Bacterial Biotransformation [12] | Bacterial Biotransformation [13] | Bacterial Biotransformation [14] | Bacterial Biotransformation [15] | Bacterial Biotransformation [16] | Bacterial Biotransformation [17] | Bacterial Biotransformation [18] | Bacterial Biotransformation [19] | Bacterial Biotransformation [20]
CN1CCOC(c2ccccc2)c2ccccc2C1 (stereo unspecified) [NEFOPAM] | Compound NOT metabolized | Compound NOT metabolized | Compound NOT metabolized | Compound NOT metabolized | Compound NOT metabolized | Compound metabolized | Compound NOT metabolized | Compound NOT metabolized | Compound NOT metabolized | Compound NOT metabolized | Compound metabolized | Compound NOT metabolized | Compound NOT metabolized | Compound metabolized | Compound metabolized | Compound NOT metabolized | Compound NOT metabolized | Compound metabolized | Compound NOT metabolized | Compound metabolized
C[C@@H]1C[C@H]2[C@@H]3CCC4=CC(=O)C=C[C@]4(C)[C@@]3(F)[C@@H](O)C[C@]2(C)[C@@]1(O)C(=O)CO [DEXAMETHASONE] | Compound NOT metabolized | Compound NOT metabolized | Compound metabolized | Compound metabolized |  | Compound NOT metabolized | Compound NOT metabolized | Compound NOT metabolized | Compound NOT metabolized | Compound NOT metabolized | Compound metabolized | Compound NOT metabolized | Compound NOT metabolized | Compound NOT metabolized | Compound NOT metabolized | Compound NOT metabolized | Compound NOT metabolized | Compound NOT metabolized | Compound NOT metabolized | Compound NOT metabolized
COC(=O)[C@H]1[C@H]2C[C@@H]3c4[nH]c5cc(OC)ccc5c4CCN3C[C@H]2C[C@@H](OC(=O)c2cc(OC)c(OC)c(OC)c2)[C@@H]1OC [RESERPINE] | Compound NOT metabolized | Compound NOT metabolized | Compound NOT metabolized | Compound metabolized | Compound NOT metabolized |  | Compound NOT metabolized | Compound metabolized | Compound NOT metabolized | Compound metabolized | Compound metabolized | Compound NOT metabolized | Compound NOT metabolized | Compound metabolized | Compound metabolized | Compound NOT metabolized | Compound metabolized | Compound metabolized | Compound metabolized | 
COc1cc2nc(N3CCN(C(=O)c4ccco4)CC3)nc(N)c2cc1OC [PRAZOSIN] | Compound NOT metabolized | Compound NOT metabolized | Compound NOT metabolized | Compound metabolized | Compound metabolized | Compound metabolized | Compound metabolized |  | Compound NOT metabolized | Compound NOT metabolized | Compound metabolized | Compound NOT metabolized | Compound metabolized | Compound metabolized | Compound metabolized | Compound NOT metabolized | Compound metabolized | Compound metabolized | Compound metabolized | Compound metabolized
